These results are taken from ChEMBL document CHEMBL4118233, “Rational design of bis-indolylmethane-oxadiazole hybrids as inhibitors of thymidine phosphorylase” (Bioorg Med Chem, 2018).

This experiment deals with Thymidine phosphorylase (Escherichia coli K-12, UniProt P07650). Nature of the experiment: Inhibition of Escherichia coli thymidine phosphorylase pretreated for 10 mins followed by substrate addition measured at 10 mins interval for 30 mins by spectrophotometric method.
Chain of Thymidine phosphorylase (P07650 whole entry): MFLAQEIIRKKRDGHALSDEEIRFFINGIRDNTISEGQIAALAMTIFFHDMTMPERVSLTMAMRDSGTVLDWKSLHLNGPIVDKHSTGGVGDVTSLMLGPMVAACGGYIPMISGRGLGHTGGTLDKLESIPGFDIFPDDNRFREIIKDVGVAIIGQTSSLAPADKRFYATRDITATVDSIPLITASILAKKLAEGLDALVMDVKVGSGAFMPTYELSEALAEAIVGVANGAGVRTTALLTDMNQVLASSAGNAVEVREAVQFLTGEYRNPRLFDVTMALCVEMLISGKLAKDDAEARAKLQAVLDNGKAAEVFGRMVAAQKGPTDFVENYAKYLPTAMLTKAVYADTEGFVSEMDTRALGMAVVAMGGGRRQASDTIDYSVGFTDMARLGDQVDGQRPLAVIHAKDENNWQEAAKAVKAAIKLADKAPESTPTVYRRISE

`Fc1cccc(-c2nnc(-c3ccc(C(c4c[nH]c5ccc(Cl)cc45)c4c[nH]c5ccc(Cl)cc45)cc3)o2)c1`: the 50% inhibitory concentration (IC50) (read-out: IC50) worked out at 29.4 µM.
For `Clc1ccc2[nH]cc(C(c3ccc(-c4nnc(-c5ccncc5)o4)cc3)c3c[nH]c4ccc(Cl)cc34)c2c1`, the IC50 result is “Not Active”.
Take `Fc1ccc(-c2nnc(-c3ccc(C(c4c[nH]c5ccc(Cl)cc45)c4c[nH]c5ccc(Cl)cc45)cc3)o2)cc1`: where the note is “read-out: IC50”, the IC50 worked out at 9.1 µM.
With `Oc1ccc(-c2nnc(-c3ccc(C(c4c[nH]c5ccc(Cl)cc45)c4c[nH]c5ccc(Cl)cc45)cc3)o2)cc1O`, for the setting “read-out: IC50”, the half-maximal inhibitory concentration (IC50) was 12.2 µM.
On to `O=[N+]([O-])c1ccc(-c2nnc(-c3ccc(C(c4c[nH]c5ccc(Cl)cc45)c4c[nH]c5ccc(Cl)cc45)cc3)o2)cc1`, for which the IC50 entry was “Not Active”.
Take `Oc1cccc(-c2nnc(-c3ccc(C(c4c[nH]c5ccc(Cl)cc45)c4c[nH]c5ccc(Cl)cc45)cc3)o2)c1O`: the IC50 (read-out: IC50) was 9.3 µM.
Consider `Cc1ccc(-c2nnc(-c3ccc(C(c4c[nH]c5ccc(Cl)cc45)c4c[nH]c5ccc(Cl)cc45)cc3)o2)cc1`, for which the IC50 entry was “Not Active”.
Turning to `Clc1ccc2[nH]cc(C(c3ccc(-c4nnc(-c5ccccn5)o4)cc3)c3c[nH]c4ccc(Cl)cc34)c2c1`, the IC50 (read-out: IC50) worked out at 38.4 µM.
The same measure, in the same setting: the value for `Fc1ccccc1-c1nnc(-c2ccc(C(c3c[nH]c4ccc(Cl)cc34)c3c[nH]c4ccc(Cl)cc34)cc2)o1` was 17.3 µM; that for `Oc1ccc(-c2nnc(-c3ccc(C(c4c[nH]c5ccc(Cl)cc45)c4c[nH]c5ccc(Cl)cc45)cc3)o2)cc1` was 24.5 µM; that for `Oc1ccccc1-c1nnc(-c2ccc(C(c3c[nH]c4ccc(Cl)cc34)c3c[nH]c4ccc(Cl)cc34)cc2)o1` was 43.5 µM.
As for `COc1ccc(O)c(-c2nnc(-c3ccc(C(c4c[nH]c5ccc(Cl)cc45)c4c[nH]c5ccc(Cl)cc45)cc3)o2)c1`, where the note is “read-out: IC50”, the IC50 was 45.2 µM.
For the molecule `Cc1ccccc1-c1nnc(-c2ccc(C(c3c[nH]c4ccc(Cl)cc34)c3c[nH]c4ccc(Cl)cc34)cc2)o1`, the IC50 entry was “Not Active”.
`Cc1cccc(-c2nnc(-c3ccc(C(c4c[nH]c5ccc(Cl)cc45)c4c[nH]c5ccc(Cl)cc45)cc3)o2)c1`: the IC50 entry is reported as “Not Active”.
Turning to `Clc1ccc2[nH]cc(C(c3ccc(-c4nnc(-c5cccnc5)o4)cc3)c3c[nH]c4ccc(Cl)cc34)c2c1`, the IC50 entry is on record as “Not Active”.
Consider `Clc1ccc(-c2nnc(-c3ccc(C(c4c[nH]c5ccc(Cl)cc45)c4c[nH]c5ccc(Cl)cc45)cc3)o2)cc1`, for which, under “read-out: IC50”, the IC50 worked out at 46.2 µM.
Still for that read-out and setting: the value for `Oc1cccc(-c2nnc(-c3ccc(C(c4c[nH]c5ccc(Cl)cc45)c4c[nH]c5ccc(Cl)cc45)cc3)o2)c1` was 53.5 µM.
`Clc1ccc2[nH]cc(C(c3ccc(-c4nnc(-c5ccccc5Cl)o4)cc3)c3c[nH]c4ccc(Cl)cc34)c2c1`: under “read-out: IC50”, the IC50 was found to be 29.3 µM.
Consider `COc1ccc(-c2nnc(-c3ccc(C(c4c[nH]c5ccc(Cl)cc45)c4c[nH]c5ccc(Cl)cc45)cc3)o2)cc1O`, for which the IC50 (read-out: IC50) came to 33.5 µM.
As to `O=[N+]([O-])c1cccc(-c2nnc(-c3ccc(C(c4c[nH]c5ccc(Cl)cc45)c4c[nH]c5ccc(Cl)cc45)cc3)o2)c1`, the IC50 result is “Not Active”.
As for `COc1ccc(-c2nnc(-c3ccc(C(c4c[nH]c5ccc(Cl)cc45)c4c[nH]c5ccc(Cl)cc45)cc3)o2)c(O)c1`, the concentration for half-maximal inhibition (IC50) (read-out: IC50) is 35.2 µM.
With `Oc1ccc(O)c(-c2nnc(-c3ccc(C(c4c[nH]c5ccc(Cl)cc45)c4c[nH]c5ccc(Cl)cc45)cc3)o2)c1`, the half-inhibitory concentration (IC50) (read-out: IC50) was determined as 6.1 µM.
As to `Oc1ccc(-c2nnc(-c3ccc(C(c4c[nH]c5ccc(Cl)cc45)c4c[nH]c5ccc(Cl)cc45)cc3)o2)c(O)c1`, the IC50 (read-out: IC50) was determined as 3.5 µM.
Regarding `Clc1cccc(-c2nnc(-c3ccc(C(c4c[nH]c5ccc(Cl)cc45)c4c[nH]c5ccc(Cl)cc45)cc3)o2)c1`, the IC50 (read-out: IC50) was 54.6 µM.
On the same count and under the same terms, the value for `O=[N+]([O-])c1ccccc1-c1nnc(-c2ccc(C(c3c[nH]c4ccc(Cl)cc34)c3c[nH]c4ccc(Cl)cc34)cc2)o1` was 64.2 µM.

One may read the IC50 as the concentration that gives 50% inhibition.
